Patent US20030161854A1, “Synergistic formulations” (priority 2000, published 2003)

Tested on: 1st instar larvae of Lucilia cuprina
Experiment: In-vitro investigation for possible potentiation between spinosad and ivermectin in sheep blowfly larvae (treated chromatography papers, fractions of LC90)
Type: in vivo
Details: 48 hours
Procedure: Forty to 50 newly hatched 1st instar larvae of Lucilia cuprina were washed with sheep serum onto chromatography papers treated with serial dilutions of ivermectin or spinosad as set out below. After 48 hours numbers of live and dead larvae were counted. The LC90 was calculated for spinosad and ivermectin. Larvae were exposed to that concentration of spinosad or ivermectin and ½, ¼ and ⅛ of the LC90. In addition larvae were exposed to 1:1, 1:4, 4:1, 9:1 and 1:9 combinations of each chemical with each concentration of chemical being a fraction of the LC90.
There were 19 treatment groups in the study (plus an untreated control group):
D 12-14: Four:one rates of Ivermectin:Spinosad—(0.8×, 0.2×), (0.4×, 0.1×) and (0.2×, 0.05×)
E 15-17: Four:one rates of Spinosad:lvermectin—(0.8×, 0.2×), (0.4×, 0.1×) and (0.2×, 0.05×)
Each group was tested on 4 replicates of 50 flies and the number of dead flies per replicate was recorded.
The method of generalized linear models for overdispersed binomial data using the logistic link function was used for an analysis of the 19 treatment groups. The analysis estimated dose-response lines (on the logarithmic dose scale) for each chemical or combination. The lines for each separate chemical were used to predict the efficacy (on the logistic scale) of the combinations assuming independent action, i.e. with no synergism. These were compared with the efficacy observed or predicted from the dose-response lines for the combinations.

| Substance | Mean efficacy (Dose-response) % (0.125x LC90) | Mean efficacy (Dose-response) Logit (0.125x LC90) | Mean efficacy (Sample estimate) % (0.125x LC90) | Mean efficacy (Sample estimate) Logit (0.125x LC90) | Mean efficacy (Dose-response) % (0.25x LC90) | Mean efficacy (Dose-response) Logit (0.25x LC90) | Mean efficacy (Sample estimate) % (0.25x LC90) | Mean efficacy (Sample estimate) Logit (0.25x LC90) | Mean efficacy (Dose-response) % (0.5x LC90) | Mean efficacy (Dose-response) Logit (0.5x LC90) | Mean efficacy (Sample estimate) % (0.5x LC90) | Mean efficacy (Sample estimate) Logit (0.5x LC90) | Mean efficacy (Dose-response) % (1.0x LC90) | Mean efficacy (Dose-response) Logit (1.0x LC90) | Mean efficacy (Sample estimate) % (1.0x LC90) | Mean efficacy (Sample estimate) Logit (1.0x LC90) |
| --- | --- | --- | --- | --- | --- | --- | --- | --- | --- | --- | --- | --- | --- | --- | --- | --- |
| spinosad | 9.8% | −2.21 ± 0.28 | 16.0% | −1.66 ± 0.30 | 30.7% | −0.81 ± 0.17 | 22.0% | −1.27 ± 0.27 | 64.1% | 0.58 ± 0.16 | 63.0% | 0.53 ± 0.23 | 87.9% | 1.98 ± 0.27 | 91.5% | 2.38 ± 0.39 |
| ivermectin | 1.6% | −4.14 ± 0.48 | 3.0% | −3.48 ± 0.64 | 13.2% | −1.88 ± 0.26 | 11.0% | −2.09 ± 0.35 | 59.4% | 0.38 ± 0.18 | 59.5% | 0.38 ± 0.22 | 93.3% | 2.64 ± 0.34 | 94.0% | 2.75 ± 0.46 |
